According to ChEMBL document CHEMBL5727275, “Tetrahydronaphthyl urea derivative” (2019):

Molecular target: High affinity nerve growth factor receptor (Homo sapiens, UniProt P04629)
Test: Evaluation of Binding Activity for Human TrkA Protein: Measurement was carried out using TrkA LanthaScreen (registered trademark) Eu Kinase Binding Assay (ThermoFisher SCIENTIFIC). To a 384 well plate (Corning), 2.5 μL of the test compound having various concentrations and diluted with Kinase buffer (ThermoFisher SCIENTIFIC) and 2.5 μL of 15 nM TrkA enzyme (ThermoFisher SCIENTIFIC) were added. Moreover, […] Eu-anti-His Tag antibody (ThermoFisher SCIENTIFIC) and 5 μL of 30 nM Kinase (registered trademark) Tracer 236 (ThermoFisher SCIENTIFIC) were added, followed by reaction at room temperature for 60 minutes. After the reaction, the fluorescence intensity of Europium (Emission wavelength 615 nm) and TR-FRET (Emission wavelength 665 nm) with an excitation wavelength of 340 nm were measured with EnVision 2100 (PerkinElmer) to calculate the fluorescence ratio as the amount of the test compound and the TrkA enzyme bonded. The inhibitory activity (IC50 value) of each test compound was calculated with the fluorescence ratio of the well to which a solvent was added instead of the test compound being 0% and the fluorescence ratio of the well without addition of the TrkA protein being 100%.

Sequence of High affinity nerve growth factor receptor (P04629 whole entry): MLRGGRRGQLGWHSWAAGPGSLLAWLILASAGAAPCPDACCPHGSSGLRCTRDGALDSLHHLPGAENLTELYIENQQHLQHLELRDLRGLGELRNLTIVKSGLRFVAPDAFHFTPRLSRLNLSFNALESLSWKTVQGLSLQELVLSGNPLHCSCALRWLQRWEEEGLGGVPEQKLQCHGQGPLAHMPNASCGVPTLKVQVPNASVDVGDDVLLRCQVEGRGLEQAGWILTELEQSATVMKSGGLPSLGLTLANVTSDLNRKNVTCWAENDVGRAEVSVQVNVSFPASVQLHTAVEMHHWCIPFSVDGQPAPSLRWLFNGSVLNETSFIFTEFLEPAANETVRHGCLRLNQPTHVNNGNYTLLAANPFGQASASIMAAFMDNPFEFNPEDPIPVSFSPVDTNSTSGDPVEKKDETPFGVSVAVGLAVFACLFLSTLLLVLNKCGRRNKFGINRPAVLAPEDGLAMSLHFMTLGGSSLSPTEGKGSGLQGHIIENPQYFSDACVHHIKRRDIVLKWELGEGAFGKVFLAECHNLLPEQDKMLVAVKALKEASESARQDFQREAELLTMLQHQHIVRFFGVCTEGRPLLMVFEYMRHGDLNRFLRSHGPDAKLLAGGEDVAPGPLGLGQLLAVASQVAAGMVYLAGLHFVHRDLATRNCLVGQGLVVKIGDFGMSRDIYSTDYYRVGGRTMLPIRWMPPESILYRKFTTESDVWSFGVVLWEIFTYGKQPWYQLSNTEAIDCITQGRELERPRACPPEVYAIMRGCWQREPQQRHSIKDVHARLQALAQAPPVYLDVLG

Cc1ncc(-c2nc(-c3ccccc3)c(NC(=O)N[C@H]3c4ccc(F)cc4C(C)(C)C[C@H]3O)cc2C)cn1
IC50: < 50 nM

Cc1ncc(-c2nc(-c3ccccc3)c(NC(=O)N[C@H]3c4cc(F)ccc4C(C)(C)C[C@H]3O)cc2C)cn1
IC50: < 50 nM
